Results on one compound are retold here after patent US20220370416A1, “COMPOUNDS AND METHODS FOR TARGETED DEGRADATION OF KRAS” (Arvinas Operations, Inc., priority 2020, published 2022).

Assay [1] concerns the target KRAS^G12C (Homo sapiens, UniProt P01116, G12C). The assay can be described thus: KRAS^G12C degradation in a panel of 5 KRAS^G12C cancer cell lines (immunoblot). Also noted: MRTX849-VHL bifunctional compounds engage and degrade endogenous KRAS^G12C in NCI-H2030 cells; endogenous in cells; host or cells: NCI-H2030, NCI-H358, MIA PaCa-2, SW1573, NCI-H23. The conditions noted are these: read-out: DMax values across cell lines. It counts as cell-based. Here is the method:
NCI-H2030 (CRL-5914), MIA PaCa-2 (CRL-1420), NCI-H23 (CRL-5800), NCI-H358 (CRL-5807), and HCT-116 (CCL-247) cells were obtained from ATCC, expanded immediately, and frozen down. Vials were thawed and used within 20 passages. SW1573 cells were a gift from Arvinas and were handled in the same manner. NCI-H2030, NCI-H23, and NCI-H358 were cultured in RPMI (ATCC30-2001) supplemented with 10% FBS (Biological Industries; cat. no. S1480) and 1% Penicillin-Streptomycin (ThermoFisher; cat. no. 15140122). HCT-116 cells were maintained in high glucose DMEM (ThermoFisher; cat. no. 11965084) supplemented as above. […]
Cell lysates were clarified at 21000×g for 15 mins at 4° C. Protein levels were quantified using a 50:1 mixture of bicinchoninic acid solution (Millipore Sigma; cat. no. B9643) and 4% (w/v) copper(II) sulfate solution (Millipore Sigma; cat. no. C2284) incubated at 37° C. for 30 mins. Absorbance values at 560 nm were read on an EnVision 2101 Multilabel Reader (PerkinElmer). […]
Band intensities were quantified using BioRad's Image Lab Software. Total KRAS levels were examined by quantifying levels of both conjugated KRAS^G12C and unbound KRAS (wt or mutant) using an analysis box that spanned the two bands. This same sized box was used to quantify unbound KRAS in DMSO treated samples to account for background, except for LC-2 Epimer in FIGS. 6A and 6B. […]
For orientation: Immunoblotting shows a protein as a band on a membrane.

Assay [2] concerns pErk. As to conditions: NCI-H2030, 24 hour dose response.
Experimental: The ability of LC-2 to modulate Erk signaling was investigated in NCI-H2030 and NCI-H23 cells during a 24 hour dose response.
NCI-H2030, NCI-H23, and NCI-H358 were cultured in RPMI (ATCC30-2001) supplemented with 10% FBS (Biological Industries; cat. no. S1480) and 1% Penicillin-Streptomycin (ThermoFisher; cat. no. 15140122). HCT-116 cells were maintained in high glucose DMEM (ThermoFisher; cat. no. 11965084) supplemented as above. […] DPBS (ThermoFisher; cat. no. 14190250) was used to wash cells and 0.25% Trypsin-EDTA (ThermoFisher; cat. no. 252000-056) was used to detach cells for passaging.
Cell lysates were clarified at 21000×g for 15 mins at 4° C. Protein levels were quantified using a 50:1 mixture of bicinchoninic acid solution (Millipore Sigma; cat. no. B9643) and 4% (w/v) copper(II) sulfate solution (Millipore Sigma; cat. no. C2284) incubated at 37° C. for 30 mins. Absorbance values at 560 nm were read on an EnVision 2101 Multilabel Reader (PerkinElmer). Proteins were separated using 26 well Criterion TGX precast 4-15% (cat. no. 5671085) or 8-16% (cat. no. 5671105) gradient midi gels. […]
Band intensities were quantified using BioRad's Image Lab Software. […] Data was analyzed by computing one-way ANOVAs or two-way ANOVAs (for grouped data) using multiple comparisons in which the mean of DMSO was compared to all treatment means using GraphPad Prism 7. […]

The structures appear in SMILES notation.

Chain of KRAS^G12C (P01116 1-188 isoform P01116-2 G12C): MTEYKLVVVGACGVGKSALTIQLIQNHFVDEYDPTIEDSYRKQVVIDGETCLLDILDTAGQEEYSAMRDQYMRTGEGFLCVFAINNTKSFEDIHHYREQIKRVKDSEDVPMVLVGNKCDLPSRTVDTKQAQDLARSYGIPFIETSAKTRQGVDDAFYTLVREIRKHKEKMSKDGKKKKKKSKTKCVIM

By Dmax is commonly meant the greatest extent of degradation seen. Regarding `C=C(F)C(=O)N1CCN(c2nc(OC[C@@H]3CCCN3CCCOCCC(=O)N[C@H](C(=O)N3C[C@H](O)C[C@H]3C(=O)NCc3ccc(-c4scnc4C)cc3)C(C)(C)C)nc3c2CCN(c2cccc4cccc(Cl)c24)C3)C[C@@H]1CC#N` [LC-2, (2S,4R)-1-((S)-2-(3-(3-((S)-2-(((7-(8-chloronaphthalen-1-yl)-4-((S)-3-(cyanomethyl)-4-(2-fluoroacryloyl)piperazin-1-yl)-5,6,7,8-tetrahydropyrido[3,4-d]pyrimidin-2-yl)oxy)methyl)pyrrolidin-1-yl)propoxy)propanamido)-3,3-dimethylbutanoyl)-4-hydroxy-N-(4-(4-methylthiazol-5-yl)benzyl)pyrrolidine-2-carboxamide], the Dmax in assay [1] fell in the range of 75 to 90%. In assay [2], the pErk signaling entry is recorded as “dose-dependent decrease in signaling” and the “total Erk levels” value is reported as “elevated in a dose-dependent manner”.
